Laboratory results from patent US20090169538A1, “Methods of Treating or Preventing Tissue Damage Caused by Increased Blood Flow” (REGENERX BIOPHARMACEUTICALS, INC., priority 2006, published 2009).

Tested on: embryonic heart explants
Type: cell-based
From the text: To test the effects of secreted thymosin β4 on cardiac cell migration, an embryonic heart explant system designed to assay cell migration and transformation events on a three-dimensional collagen gel was utilized. In this assay, explants of adjacent embryonic myocardium and endocardium from valve-forming regions were placed on a collagen gel with the endocardium adjacent to the collagen.
Outflow tract was dissected from E11.5 wild type mouse embryos and placed on collagen matrices as previously described. After 10 hours of attachment explants were incubated in 30 ng/300 μl thymosin β4 in PBS, PBS alone or thymosin β4 and 100 nM wortmanin. Cultures were carried out for 3-9 days at 37° C. 5% CO2 and fixed in 4% paraformaldehyde in PBS for 10 min at RT. Cells were counted for quantification of migration and distance using at least three separate explants under each condition for endothelial migration and eight separate explants for myocardial migration.
Paraformaldehyde-fixed explants were permeabilized for 10 min at RT with Permeabilize solution (10 mM PIPES pH6.8; 50 mMNaCl; 0.5% Triton X-100; 300 mM Sucrose; 3 mM MgCl2) and rinsed with PBS 2×5 min at RT. After a series of blocking and rinsing steps, detection antibodies were used and explants rinsed and incubated with Equilibration buffer (Anti-Fade kit) 10 min at room temperature. Explants were scooped to a glass microscope slide, covered, and examined by fluorescein microscopy. TUNEL assay was performed using ApopTag Plus Fluorescein In Situ Apoptosis detection kit (Intergen Company # S7111) as recommended.

## thymosin β4
  cell death based on TUNEL assay compared to control cells: No significant difference
E11.5 explants, compared to PBS, p<0.01
  number of migrating endothelial cells: increased number of migrating endothelial cells
Migrated cells of explants
  proliferative rate based on phosho-histone H3 immunostaining compared to control cells: No significant difference
Thymosin β4 added to primary explants on collagen gel
  migration of myocardial cells away from the explant: a large number of spontaneously beating, cardiac muscle actin-positive cells had migrated away from the explant
